Experimental data from ChEMBL document CHEMBL2074029, “Substrate specificities of rat oatp1 and ntcp: implications for hepatic organic anion uptake” (Am J Physiol Gastrointest Liver Physiol, 2003).

Assays:
Format in all cases: functional, cell-based
[1] = molecular target: T1, Solute carrier organic anion transporter family member 1A1 (Rattus norvegicus, UniProt P46720); assay: TP_TRANSPORTER: uptake of Tauro-23-norcholate at 20 u M in Oatp1-expressing HeLa cells; conditions: human, 20 µM
T1 sequence (P46720 whole entry): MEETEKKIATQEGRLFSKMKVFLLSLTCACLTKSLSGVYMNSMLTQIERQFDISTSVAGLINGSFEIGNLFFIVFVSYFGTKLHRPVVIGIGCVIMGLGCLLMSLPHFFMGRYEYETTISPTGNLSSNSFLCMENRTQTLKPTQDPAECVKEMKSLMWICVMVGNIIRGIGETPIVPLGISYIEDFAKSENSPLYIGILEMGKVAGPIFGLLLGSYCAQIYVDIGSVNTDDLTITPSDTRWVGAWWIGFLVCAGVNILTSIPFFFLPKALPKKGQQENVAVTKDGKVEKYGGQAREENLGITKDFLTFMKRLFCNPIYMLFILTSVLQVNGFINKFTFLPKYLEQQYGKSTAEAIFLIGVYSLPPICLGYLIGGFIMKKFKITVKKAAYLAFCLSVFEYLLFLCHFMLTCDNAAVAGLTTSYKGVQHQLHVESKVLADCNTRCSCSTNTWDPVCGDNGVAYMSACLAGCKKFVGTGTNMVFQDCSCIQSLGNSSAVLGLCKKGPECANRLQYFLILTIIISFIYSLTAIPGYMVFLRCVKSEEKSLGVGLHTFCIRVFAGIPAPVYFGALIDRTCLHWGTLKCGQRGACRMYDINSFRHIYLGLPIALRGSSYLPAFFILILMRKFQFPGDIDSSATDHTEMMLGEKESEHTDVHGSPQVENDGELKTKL

[2] = molecular target: T1, Solute carrier organic anion transporter family member 1A1; assay: TP_TRANSPORTER: uptake of 23-Nor-cholate at 20 u M in Oatp1-expressing HeLa cells; conditions: human, 20 µM
[3] = molecular target: T1, Solute carrier organic anion transporter family member 1A1; assay: TP_TRANSPORTER: uptake of Glyco-23-norcholate at 20 uM in Oatp1-expressing HeLa cells; conditions: human
[4] = molecular target: T1, Solute carrier organic anion transporter family member 1A1; assay: TP_TRANSPORTER: uptake of Chenodeoxycholate at 20 uM in Oatp1-expressing HeLa cells; conditions: human
[5] = molecular target: T2, Hepatic sodium/bile acid cotransporter (Rattus norvegicus, UniProt P26435); assay: TP_TRANSPORTER: uptake of Deoxycholate at a concentration of 1 u M in NTCP-expressing HeLa cells; conditions: human, 1 µM
T2 sequence (P26435 whole entry): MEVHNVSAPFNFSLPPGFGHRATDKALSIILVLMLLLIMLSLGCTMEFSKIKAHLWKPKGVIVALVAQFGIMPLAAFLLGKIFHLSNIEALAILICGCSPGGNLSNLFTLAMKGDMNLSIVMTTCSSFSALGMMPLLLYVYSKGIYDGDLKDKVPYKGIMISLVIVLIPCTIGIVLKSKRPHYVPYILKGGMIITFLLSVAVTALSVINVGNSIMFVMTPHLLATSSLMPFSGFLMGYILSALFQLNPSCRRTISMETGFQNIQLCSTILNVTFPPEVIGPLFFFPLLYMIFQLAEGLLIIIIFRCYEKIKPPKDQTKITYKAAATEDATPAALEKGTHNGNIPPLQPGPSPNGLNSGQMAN

[6] = molecular target: T1, Solute carrier organic anion transporter family member 1A1; assay: TP_TRANSPORTER: uptake of Deoxycholate at 1 uM in Oatp1-expressing HeLa cells; conditions: human
[7] = molecular target: T1, Solute carrier organic anion transporter family member 1A1; assay: TP_TRANSPORTER: uptake of Glycochenodeoxycholate at 20 uM in Oatp1-expressing HeLa cells; conditions: human
[8] = molecular target: T1, Solute carrier organic anion transporter family member 1A1; assay: TP_TRANSPORTER: uptake of Glycocholate at 20 u M in Oatp1-expressing HeLa cells; conditions: human, 20 µM
[9] = molecular target: T2, Hepatic sodium/bile acid cotransporter; assay: TP_TRANSPORTER: uptake of Glycocholate at a concentration of 4 u M in NTCP-expressing HeLa cells; conditions: human, 4 µM
[10] = molecular target: T1, Solute carrier organic anion transporter family member 1A1; assay: TP_TRANSPORTER: uptake of Glycocholate at 4 u M in Oatp1-expressing HeLa cells; conditions: human, 4 µM
[11] = molecular target: T1, Solute carrier organic anion transporter family member 1A1; assay: TP_TRANSPORTER: uptake of Glycotrihydroxycoprostanoic acid at 20 u M in Oatp1-expressing HeLa cells; conditions: human, 20 µM
[12] = molecular target: T1, Solute carrier organic anion transporter family member 1A1; assay: TP_TRANSPORTER: uptake of Glycoursodeoxycholate at 20 u M in Oatp1-expressing HeLa cells; conditions: human, 20 µM
[13] = molecular target: T2, Hepatic sodium/bile acid cotransporter; assay: TP_TRANSPORTER: uptake of Hyodeoxycholate at a concentration of 1 u M in NTCP-expressing HeLa cells; conditions: human, 1 µM
[14] = molecular target: T2, Hepatic sodium/bile acid cotransporter; assay: TP_TRANSPORTER: uptake of Lagodeoxycholate at a concentration of 1 u M in NTCP-expressing HeLa cells; conditions: human, 1 µM
[15] = molecular target: T1, Solute carrier organic anion transporter family member 1A1; assay: TP_TRANSPORTER: uptake of Lagodeoxycholate at 1 uM in Oatp1-expressing HeLa cells; conditions: human
[16] = molecular target: T1, Solute carrier organic anion transporter family member 1A1; assay: TP_TRANSPORTER: uptake of Muricholate at 1 u M in Oatp1-expressing HeLa cells; conditions: human, 1 µM
[17] = molecular target: T2, Hepatic sodium/bile acid cotransporter; assay: TP_TRANSPORTER: uptake of Muricholate at a concentration of 1 u M in NTCP-expressing HeLa cells; conditions: human, 1 µM
[18] = molecular target: T1, Solute carrier organic anion transporter family member 1A1; assay: TP_TRANSPORTER: uptake of Bromosulfophthalein at 1 u M in Oatp1-expressing HeLa cells; conditions: human, 1 µM
[19] = molecular target: T1, Solute carrier organic anion transporter family member 1A1; assay: TP_TRANSPORTER: uptake of Taurochenodeoxycholate at 20 u M in Oatp1-expressing HeLa cells; conditions: human, 20 µM
[20] = molecular target: T2, Hepatic sodium/bile acid cotransporter; assay: TP_TRANSPORTER: uptake of Taurolagodeoxycholate at a concentration of 1 u M in NTCP-expressing HeLa cells; conditions: human, 1 µM
[21] = molecular target: T1, Solute carrier organic anion transporter family member 1A1; assay: TP_TRANSPORTER: uptake of Taurolagodeoxycholate at 1 u M in Oatp1-expressing HeLa cells; conditions: human, 1 µM
[22] = molecular target: T1, Solute carrier organic anion transporter family member 1A1; assay: TP_TRANSPORTER: uptake of Tauromurocholate at 1 u M in Oatp1-expressing HeLa cells; conditions: human, 1 µM
[23] = molecular target: T2, Hepatic sodium/bile acid cotransporter; assay: TP_TRANSPORTER: uptake of Tauromurocholate at a concentration of 1 u M in NTCP-expressing HeLa cells; conditions: human, 1 µM
[24] = molecular target: T1, Solute carrier organic anion transporter family member 1A1; assay: TP_TRANSPORTER: uptake of Taurotrihydroxycoprostanoic acid at 20 u M in Oatp1-expressing HeLa cells; conditions: human, 20 µM
[25] = molecular target: T1, Solute carrier organic anion transporter family member 1A1; assay: TP_TRANSPORTER: uptake of Tauroursodeoxycholate at 20 u M in Oatp1-expressing HeLa cells; conditions: human, 20 µM
[26] = molecular target: T1, Solute carrier organic anion transporter family member 1A1; assay: TP_TRANSPORTER: uptake of Trihydroxycoprostanoic acid at 20 uM in Oatp1-expressing HeLa cells; conditions: human
[27] = molecular target: T1, Solute carrier organic anion transporter family member 1A1; assay: TP_TRANSPORTER: uptake of Ursodeoxycholate at 20 uM in Oatp1-expressing HeLa cells; conditions: human

C[C@H](CC(=O)NCCS(=O)(=O)O)[C@H]1CC[C@H]2[C@@H]3[C@H](O)C[C@@H]4C[C@H](O)CC[C@]4(C)[C@H]3C[C@H](O)[C@]12C
Activity [1]: substrate [+]

C[C@H](CC(=O)O)[C@H]1CC[C@H]2[C@@H]3[C@H](O)C[C@@H]4C[C@H](O)CC[C@]4(C)[C@H]3C[C@H](O)[C@]12C
Activity [2]: substrate [+]

C[C@H](CC(=O)NCC(=O)O)[C@H]1CC[C@H]2[C@@H]3[C@H](O)C[C@@H]4C[C@H](O)CC[C@]4(C)[C@H]3C[C@H](O)[C@]12C
Activity [3]: is not a substrate [-]

C[C@H](CCC(=O)O)[C@H]1CC[C@H]2[C@@H]3[C@H](O)C[C@@H]4C[C@H](O)CC[C@]4(C)[C@H]3CC[C@]12C [CHENODIOL]
Activity [4]: is not a substrate [-]

C[C@H](CCC(=O)O)[C@H]1CC[C@H]2[C@@H]3CC[C@@H]4C[C@H](O)CC[C@]4(C)[C@H]3C[C@H](O)[C@]12C [DEOXYCHOLIC ACID]
Activity [5]: is not a substrate [-]
Activity [6]: is not a substrate [-]

C[C@H](CCC(=O)NCC(=O)O)[C@H]1CC[C@H]2[C@@H]3[C@H](O)C[C@@H]4C[C@H](O)CC[C@]4(C)[C@H]3CC[C@]12C [GLYCOCHENODEOXYCHOLATE]
Activity [7]: is not a substrate [-]

C[C@H](CCC(=O)NCC(=O)O)[C@H]1CC[C@H]2[C@@H]3[C@H](O)C[C@@H]4C[C@H](O)CC[C@]4(C)[C@H]3C[C@H](O)[C@]12C [GLYCOCHOLIC ACID]
Activity [8]: substrate [+]
Activity [9]: substrate [+]
Activity [10]: substrate [+]

CC(CC(=O)NCC(=O)O)[C@H]1CC[C@@H]2C1[C@@H](O)C[C@@H]1C3CC[C@@H](O)CC3C[C@@H](O)[C@H]12 (some centres not stated) [GLYCOTRIHYDROXYCOPROSTANOIC ACID]
Activity [11]: substrate [+]

C[C@H](CCC(=O)NCC(=O)O)[C@H]1CC[C@H]2[C@@H]3[C@@H](O)C[C@@H]4C[C@H](O)CC[C@]4(C)[C@H]3CC[C@]12C [GLYCOURSODEOXYCHOLIC ACID]
Activity [12]: substrate [+]

C[C@H](CCC(=O)O)[C@H]1CC[C@H]2[C@@H]3C[C@H](O)[C@@H]4C[C@H](O)CC[C@]4(C)[C@H]3CC[C@]12C [HYODEOXYCHOLIC_ACID]
Activity [13]: is not a substrate [-]

C[C@H](CCC(=O)O)[C@H]1CC[C@H]2[C@@H]3CC[C@@H]4C[C@H](O)CC[C@]4(C)[C@H]3C[C@@H](O)[C@]12C [LAGODEOXYCHOLATE]
Activity [14]: is not a substrate [-]
Activity [15]: is not a substrate [-]

C[C@H](CCC(=O)O)C1CC[C@H]2[C@@H]3C(O)C(O)C4C[C@H](O)CC[C@]4(C)[C@H]3CC[C@]12C (some centres not stated) [MURICHOLATE]
Activity [16]: substrate [+]
Activity [17]: substrate [+]

O=C1OC(c2ccc(O)c(S(=O)(=O)[O-])c2)(c2ccc(O)c(S(=O)(=O)[O-])c2)c2c(Br)c(Br)c(Br)c(Br)c21.[Na+].[Na+] [SULFOBROMOPHTHALEIN SODIUM]
Activity [18]: substrate [+]

C[C@H](CCC(=O)NCCS(=O)(=O)O)[C@H]1CC[C@H]2[C@@H]3[C@H](O)C[C@@H]4C[C@H](O)CC[C@]4(C)[C@H]3CC[C@]12C [TAUROCHENODEOXYCHOLATE]
Activity [19]: substrate [+]

C[C@H](CCC(=O)NCCS(=O)(=O)O)[C@H]1CC[C@H]2[C@@H]3CC[C@H]4C[C@H](O)CC[C@]4(C)[C@H]3C[C@@H](O)[C@]12C [TAUROLAGODEOXYCHOLATE]
Activity [20]: substrate [+]
Activity [21]: substrate [+]

C[C@H](CCC(=O)NCCS(=O)(=O)O)[C@H]1CC[C@H]2[C@@H]3C[C@@H](O)[C@@H]4C[C@H](O)CC[C@]4(C)[C@H]3CC[C@]12C [TAUROMUROCHOLATE]
Activity [22]: substrate [+]
Activity [23]: substrate [+]

CC(CCC[C@@H](C)C1CC[C@H]2[C@@H]3[C@H](O)C[C@]4(C(=O)O)C[C@H](O)CC[C@]4(C)[C@H]3C[C@H](O)[C@]12C)C(=O)NCCS(=O)(=O)O (some centres not stated) [TAUROTRIHYDROXYCOPROSTANOIC ACID]
Activity [24]: substrate [+]

C[C@H](CCC(=O)NCCS(=O)(=O)O)[C@H]1CC[C@H]2[C@@H]3[C@@H](O)C[C@@H]4C[C@H](O)CC[C@]4(C)[C@H]3CC[C@]12C [TAURURSODIOL]
Activity [25]: substrate [+]

CC(C)CCC[C@@H](C)C1CC[C@H]2[C@@H]3[C@H](O)C[C@]4(C(=O)O)C[C@H](O)CC[C@]4(C)[C@H]3C[C@H](O)[C@]12C (some centres not stated) [TRIHYDROXYCOPROSTANOIC ACID]
Activity [26]: is not a substrate [-]

C[C@H](CCC(=O)O)[C@H]1CC[C@H]2[C@@H]3[C@@H](O)C[C@@H]4C[C@H](O)CC[C@]4(C)[C@H]3CC[C@]12C [URSODIOL]
Activity [27]: is not a substrate [-]
